US20260327191A1, “GSK3a INHIBITORS AND METHODS OF USE THEREOF” (Blueprint Medicines Corporation, priority 2023, published 2026)

Legend:
[1] = target: T1, GSK3B (Homo sapiens, UniProt P49841); assay: In vitro enzymatic activity assay, GSK3β; assay type: biochemical; design: Full length human GSK3α or GSK3B expressed as N-terminal GST fusion proteins; GST (N); purchased Carna Biosciences (Japan); host or cells: baculovirus host; details: 1.0 mM ATP, 1.0 μM peptide substrate, 120 min, 25° C, read-out: Enzyme GSK3β (IC50)
[2] = target: T1, GSK3B; assay: NanoBRET cellular target engagement assay, Nanoluc-GSK3B in HEK293 cells; assay type: cell-based; design: expressed in transfected cells; details: NanoBRET GSK3β IC50, HEK293 cells, tracer K-8, 2 hours, 37° C
[3] = target: T2, GSK3A (Homo sapiens, UniProt P49840); assay: NanoBRET cellular target engagement assay, Nanoluc-GSK3A in HEK293 cells; assay type: cell-based; details: NanoBRET GSK3α IC50, HEK293 cells, tracer K-8, 2 hours, 37° C
T2 construct: expressed in transfected cells

[4] = target: T3, human GSK3α (Homo sapiens, UniProt P49840); assay: In vitro enzymatic activity assay, GSK3α; assay type: biochemical; details: 1.0 mM ATP, 1.0 μM peptide substrate, 120 min, 25° C, read-out: Enzyme GSK3α (IC50)
T3 construct: Full length human GSK3α or GSK3B expressed as N-terminal GST fusion proteins; GST (N); purchased Carna Biosciences (Japan); host or cells: baculovirus host
T3 sequence (P49840 whole entry, the tested form may be a part): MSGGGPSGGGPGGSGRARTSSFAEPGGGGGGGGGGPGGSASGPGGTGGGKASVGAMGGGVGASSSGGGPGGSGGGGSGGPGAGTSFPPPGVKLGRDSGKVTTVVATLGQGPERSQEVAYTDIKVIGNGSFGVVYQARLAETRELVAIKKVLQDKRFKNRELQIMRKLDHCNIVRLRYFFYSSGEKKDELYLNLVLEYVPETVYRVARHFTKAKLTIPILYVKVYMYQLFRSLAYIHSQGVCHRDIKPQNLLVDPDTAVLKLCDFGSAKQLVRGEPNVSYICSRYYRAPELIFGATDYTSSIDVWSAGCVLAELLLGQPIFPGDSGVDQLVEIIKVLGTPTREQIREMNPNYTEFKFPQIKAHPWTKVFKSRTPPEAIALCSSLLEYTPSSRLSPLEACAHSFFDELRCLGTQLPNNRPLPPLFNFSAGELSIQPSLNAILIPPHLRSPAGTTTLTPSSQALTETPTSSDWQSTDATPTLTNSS

T1 sequence (P49841 whole entry, the tested form may be a part): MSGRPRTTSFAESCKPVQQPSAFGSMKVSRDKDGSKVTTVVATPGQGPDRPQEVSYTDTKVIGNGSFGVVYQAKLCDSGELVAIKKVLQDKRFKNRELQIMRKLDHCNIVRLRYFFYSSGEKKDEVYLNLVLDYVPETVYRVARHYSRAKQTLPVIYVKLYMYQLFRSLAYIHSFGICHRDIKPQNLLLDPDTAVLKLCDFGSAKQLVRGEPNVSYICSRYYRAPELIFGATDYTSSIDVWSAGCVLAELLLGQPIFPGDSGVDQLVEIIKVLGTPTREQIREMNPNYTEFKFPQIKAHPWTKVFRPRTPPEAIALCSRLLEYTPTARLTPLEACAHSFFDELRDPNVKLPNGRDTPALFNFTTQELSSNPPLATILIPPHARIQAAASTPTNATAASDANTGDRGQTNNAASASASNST
T2 sequence (P49840 whole entry): as the sequence (P49840 whole entry, the tested form may be a part) above

IC50 [1] [nM]	IC50 [2] [nM]	IC50 [3] [nM]	IC50 [4] [nM]	Compound
568	335	3.7	9.9	Cc1cc(OC(F)(F)F)cc(C)c1-n1cnc(N)c(C(=O)Nc2cncc([C@H]3CCCCN3)c2)c1=O [Example 110, (R)-4-amino-1-(2,6-dimethyl-4-(trifluoromethoxy)phenyl)-6-oxo-N-(5-(piperidin-2-yl)pyridin-3-yl)-1,6-dihydropyrimidine-5-carboxamide]
450	566	9.4	11.2	Nc1ncn(-c2c(Cl)cc(C(F)(F)F)cc2Cl)c(=O)c1C(=O)Nc1cncc([C@@H]2CCCN2)c1 [Example 118, (S)-4-amino-1-(2,6-dichloro-4-(trifluoromethyl)phenyl)-6-oxo-N-(5-(pyrrolidin-2-yl)pyridin-3-yl)-1,6-dihydropyrimidine-5-carboxamide]
414	502	8.1	8.1	Nc1ncn(-c2c(Cl)cc(C(F)(F)F)cc2Cl)c(=O)c1C(=O)Nc1cncc([C@@H]2CCCCN2)c1 [Example 119, (S)-4-amino-1-(2,6-dichloro-4-(trifluoromethyl)phenyl)-6-oxo-N-(5-(piperidin-2-yl)pyridin-3-yl)-1,6-dihydropyrimidine-5-carboxamide]
442	274	4.4	9.4	NCc1cncc(NC(=O)c2c(N)ncn(-c3c(Cl)cc(C(F)(F)F)cc3Cl)c2=O)c1 [Example 120, 4-amino-N-(5-(aminomethyl)pyridin-3-yl)-1-(2,6-dichloro-4-(trifluoromethyl)phenyl)-6-oxo-1,6-dihydropyrimidine-5-carboxamide]

The next lines start with the compound.

Compound	IC50 [1] [nM]	IC50 [2] [nM]	IC50 [3] [nM]	IC50 [4] [nM]
Cc1cc(C(F)F)cc(C)c1-n1cnc(N)c(C(=O)Nc2cncc([C@H]3CCCCN3)c2)c1=O [Example 97, (R)-4-amino-1-(4-(difluoromethyl)-2,6-dimethylphenyl)-6-oxo-N-(5-(piperidin-2-yl)pyridin-3-yl)-1,6-dihydropyrimidine-5-carboxamide]	230	121	1.8	3.6
COCc1cc(C)c(-n2cnc(N)c(C(=O)Nc3cncc([C@H]4CCCCN4)c3)c2=O)c(C)c1 [Example 98, (R)-4-amino-1-(4-(methoxymethyl)-2,6-dimethylphenyl)-6-oxo-N-(5-(piperidin-2-yl)pyridin-3-yl)-1,6-dihydropyrimidine-5-carboxamide]	254	134	2.5	4.6
CNCc1cncc(NC(=O)c2c(N)ncn(-c3c(C)cc(COC)cc3C)c2=O)c1 [Example 99, 4-amino-1-(4-(methoxymethyl)-2,6-dimethylphenyl)-N-(5-((methylamino)methyl)pyridin-3-yl)-6-oxo-1,6-dihydropyrimidine-5-carboxamide]	1020	565	7.4	20.5
CNCc1cncc(NC(=O)c2c(N)ncn(-c3c(C)cc(C(F)F)cc3C)c2=O)c1 [Example 105, 4-amino-1-(4-(difluoromethyl)-2,6-dimethylphenyl)-N-(5-((methylamino)methyl)pyridin-3-yl)-6-oxo-1,6-dihydropyrimidine-5-carboxamide]	1130	577	7.2	19.3
CCC[C@@H](N)c1cncc(NC(=O)c2c(N)ncn(-c3c(C)cc(C(F)F)cc3C)c2=O)c1 [Example 106, (R)-4-amino-N-(5-(1-aminobutyl)pyridin-3-yl)-1-(4-(difluoromethyl)-2,6-dimethylphenyl)-6-oxo-1,6-dihydropyrimidine-5-carboxamide]	279	195	2.8	4.5
Nc1ncn(-c2c(Cl)cc(OC(F)(F)F)cc2Cl)c(=O)c1C(=O)Nc1cncc([C@@H]2CCCN2)c1 [Example 109, (S)-4-amino-1-(2,6-dichloro-4-(trifluoromethoxy)phenyl)-6-oxo-N-(5-(pyrrolidin-2-yl)pyridin-3-yl)-1,6-dihydropyrimidine-5-carboxamide]	803	567	8.4	15.6
